Each structure is given as a SMILES string. The source made the active and inactive calls.

As usually defined, the ΔTm is the shift of the melting midpoint relative to a reference. As a reminder, the EC50 is the concentration at which the effect is half-maximal. In general, Kd refers to the equilibrium constant for the complex coming apart. One may read the half-life as the time needed for the level to fall by half in the phase considered.

The target in data set [1] is T1, Nuclear receptor subfamily 2 group E member 1 (Homo sapiens, UniProt Q9Y466). Description: Agonist activity at TLX in human T98G cells assessed as upregulation of SIRT1 mRNA expression at 30 uM measured after 8 hrs by qRT-PCR analysis. The class given is cell-based. The settings on record: filed as agonist. (In general: Quantitative PCR measures a nucleic acid by following its amplification.)

Data set [2] can be described thus: Solubility of the compound in DSF buffer in presence of 2% DMSO. The data set is classed as physicochemical.
The subject of data set [3] is HEK-293T. Description: Effect on Gal4-VP16 plasmid transfected in human HEK293T cells assessed as reporter activity at 100 uM incubated for 14 hrs by luciferase assay. The data set is classed as functional, cell-based.
The target in data set [4] is T1, Nuclear receptor subfamily 2 group E member 1. The settings on record: filed as agonist, dose 100.0 µM.
The test system of data set [5] is T98G. Description: Upregulation of TLX gene expression in human T98G cells at 30 uM measured after 8 hrs by qRT-PCR analysis. The data set is classed as functional, cell-based.
Data set [6] concerns the target T1, Nuclear receptor subfamily 2 group E member 1. Description: Agonist activity at human Gal4-fused TLX LBD expressed in human HEK293T cells coexpressing Gal4-VP16 assessed as repressor activity of receptor by measuring decrease in reporter activity measured after 14 hrs by Dual-Glo Luciferase assay. The class given is cell-based.
Data set [7] shares this target. Description: Agonist activity at human full length Gal4-fused TLX transfected in human HEK293T cells coexpressing pFR-TAE-Luc assessed as repressor activity of receptor by measuring decrease in reporter activity by dual-glo luciferase assay. The class given is cell-based.
Data set [8] concerns T98G. Description: Upregulation of TLX gene expression in human T98G cells at 3 uM measured after 8 hrs by qRT-PCR analysis. The data set is classed as functional, cell-based.
The target of data set [9] is T1, Nuclear receptor subfamily 2 group E member 1. Description: Agonist activity at TLX in human T98G cells assessed as upregulation of SIRT1 mRNA expression at 3 uM measured after 8 hrs by qRT-PCR analysis. The data set is classed as cell-based. The settings on record: filed as agonist.
Data set [10] relates to HEK-293T. Description: Cytotoxicity against human HEK293T cells assessed as reduction in cell viability incubated for 24 hrs by WST-1 assay. The class given is toxicity, cell-based. For orientation: Formazan colour is commonly taken as a measure of viable cells.
Data set [11] addresses T1, Nuclear receptor subfamily 2 group E member 1. Description: Destabilization of recombinant TLX LBD (unknown origin) assessed as change in entropy at 100 uM by isothermal titration calorimetry. The settings on record: filed as agonist. In general terms: Isothermal titration calorimetry measures the heat released or taken up as one component is titrated into another.
Data set [12] shares this target. Description: Destabilization of recombinant TLX LBD (unknown origin) assessed as change in enthalpy at 100 uM by isothermal titration calorimetry. The settings on record: filed as agonist.
The target is the same in data set [13]. Description: Binding affinity to recombinant TLX LBD (unknown origin) by differential scanning fluorometry.
The nature of data set [14]: Half life in Sprague-Dawley rat liver microsomes at 10 uM pretreated for 30 mins with NADPH regenerating system followed by incubation with microsomes for 60 mins by HPLC analysis. The class given is ADME, Microsome. The settings on record: time 90 min.
The target in data set [15] is T1, Nuclear receptor subfamily 2 group E member 1. Description: Agonist activity at TLX (unknown origin) assessed as induction of receptor oligomerization using sGFP-labeled TLX LBD as acceptor and biotin TLX LBD as donor measured after 20 hrs incubation at RT and 2 hrs at 37 degC by HTRF assay.
Data set [16] is described as follows: Drug degradation in Sprague-Dawley rat liver microsomes at 10 uM pretreated for 30 mins with NADPH regenerating system followed by incubation with microsomes for 30 mins by HPLC analysis. The data set is classed as ADME, Microsome. The settings on record: time 60 min, read-out: Drug degradation.
The test system of data set [17] is T98G. Description: Upregulation of TLX gene expression in human T98G cells at 10 uM measured after 8 hrs by qRT-PCR analysis. The data set is classed as functional, cell-based.
Data set [18] concerns HEK-293T. Description: Cytotoxicity against human HEK293T cells assessed as reduction in cell viability at >10 uM incubated for 24 hrs by WST-1 assay. The class given is toxicity, cell-based.
Data set [19] deals with T1, Nuclear receptor subfamily 2 group E member 1. Description: Agonist activity at human full length Gal4-fused TLX transfected in human HEK293T cells coexpressing pFR-TAE-Luc assessed as repressor activity of receptor by measuring decrease in reporter activity at 0.03 to 30 uM by dual-glo luciferase assay. The data set is classed as cell-based. The settings on record: dose 0.03-30 µM.

Data set [20] has the same target. Description: Agonist activity at human Gal4-fused TLX LBD expressed in human HEK293T cells coexpressing Gal4-VP16 assessed as repressor activity of receptor by measuring decrease in reporter activity at 0.03 to 30 uM measured after 14 hrs by Dual-Glo Luciferase assay. The class given is cell-based. The settings on record: filed as agonist, dose 0.03-30 µM.
Data set [21] shares this target. Description: Agonist activity at human Gal4-fused TLX LBD expressed in human HEK293T cells coexpressing Gal4-VP16 assessed as repressor activity of receptor by measuring decrease in reporter activity at 30 uM measured after 14 hrs by Dual-Glo Luciferase assay. The class given is cell-based.
Data set [22] deals with HEK-293T. Description: Cytotoxicity against human HEK293T cells assessed as reduction in cell viability at >=10 uM incubated for 24 hrs by WST-1 assay. The class given is toxicity, cell-based.

T1 sequence (Q9Y466 whole entry): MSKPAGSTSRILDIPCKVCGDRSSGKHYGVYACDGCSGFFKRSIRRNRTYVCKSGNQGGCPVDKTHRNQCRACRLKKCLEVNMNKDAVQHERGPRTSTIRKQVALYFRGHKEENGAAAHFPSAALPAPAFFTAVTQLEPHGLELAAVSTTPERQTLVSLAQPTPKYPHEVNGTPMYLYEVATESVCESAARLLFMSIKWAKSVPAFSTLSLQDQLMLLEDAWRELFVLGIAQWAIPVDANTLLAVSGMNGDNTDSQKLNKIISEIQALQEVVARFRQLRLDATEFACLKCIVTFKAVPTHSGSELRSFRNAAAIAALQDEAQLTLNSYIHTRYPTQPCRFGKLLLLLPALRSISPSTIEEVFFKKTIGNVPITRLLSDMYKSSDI

With `Cc1cn(-c2cc(N)cc(C(F)(F)F)c2)cn1`, the result in [1] was Active. Further, the solubility entry in [2] is given as “Soluble”. For the same compound, the result in the data set on HEK-293T [3] and in the data set on T98G [5] was inactive. In data set [4], the ΔTm was -1.69 °C. Besides, the concentration for a half-maximal effect (EC50) in data set [6] amounted to 20 µM.
Take `CCCCOc1cc(C(=O)Nc2cc(-n3cnc(C)c3)cc(C(F)(F)F)c2)c2ccccc2n1`: the EC50 is 0.7 µM in [7], 5 µM in data set [15] and 0.25 µM in [6]. The result in the data set with T98G [8] and with HEK-293T [3] was inactive. Besides, the outcome in data set [9] was Active. In the data set on HEK-293T [10], the Activity entry was “Non-Toxic”. Also, in [11], the TdeltaS is 123 kcal/mol. Also, in [12], the deltaH turned out to be 114 kcal/mol. Besides, the Kd in data set [13] was 1.6 µM. The solubility result in [2] is on record as “Soluble”. In addition, in data set [14], the half-life at 10 µM was 2.37 h.
Take `Cc1cc(C(=O)N2CCN(C(c3ccccc3)c3ccccc3)CC2)nn1C`: the metabolised at 1 h, 10 µM in data set [16] came out at 100%. Also, in the data set with HEK-293T [10], the Activity result is listed as “Non-Toxic”. Moreover, in data set [4], the thermal shift (ΔTm) is -1.08 °C. The result with T98G [17] was inactive.
Turning to `CC1(C)CC=C(c2ccccc2)c2cc(/C=C/c3ccc(C(=O)O)cc3)ccc21`, the Activity result in the data set with HEK-293T [18] is “Toxic”. For the same compound, the solubility result in data set [2] was “Soluble”. For the same compound, the outcome in [19] was inactive. Moreover, the result in data set [20] was Active.
For `CC(=O)Nc1cc(-n2cnc(C)c2)cc(C(F)(F)F)c1`, the EC50 in data set [6] turned out to be 11 µM.
Regarding `Cc1cn(-c2cc(NC(=O)COc3cccc4ccccc34)cc(C(F)(F)F)c2)cn1`, the result in data set [21] was inactive.
Consider `Cc1cn(-c2cc(NC(=O)C(c3ccccc3)c3ccccc3)cc(C(F)(F)F)c2)cn1`, for which, in the data set with HEK-293T [22], the Activity result is “Toxic”.
For `Cc1cn(-c2cc(NC(=O)N3CCN(c4ccc(O)cc4)CC3)cc(C(F)(F)F)c2)cn1`, the EC50 in data set [6] was determined as 5 µM.
Same read-out and setting: the same measure for `Cc1cn(-c2cc(NC(=O)CCCc3ccc(-c4ccccc4)cc3)cc(C(F)(F)F)c2)cn1`: 1.2 µM; for `COc1cc(N)c(Cl)cc1C(=O)Nc1cc(-n2cnc(C)c2)cc(C(F)(F)F)c1`: 3 µM.
For the compound `Cc1cn(-c2cc(NC(=O)C3CCc4[nH]c5ccccc5c4C3)cc(C(F)(F)F)c2)cn1` (stereo not drawn), in [21], the result was inactive.

Source of the values: ChEMBL document CHEMBL5042518, “Design of a Potent TLX Agonist by Rational Fragment Fusion” (J Med Chem, 2022).
